The values that follow come from US20180228811A1, “GDNF INDUCTION FOR THE TREATMENT OF RETINAL DISORDERS” (THE SCHEPENS EYE RESEARCH INSTITUTE, INC., priority 2014, published 2018).

Molecules are shown by their SMILES. “And” between values parts separate entries of the source, which are not always exact repeats. Equal entries are not always repeated.

Test [1] concerns GDNF. The experiment in a line: GDNF induction in human retinal progenitor cells (hRPC) (ELISA). The class given is cell-based. How it is done: GDNF induction […] was assessed using three retinal-specific cell systems: ARPE19, as a model for human retinal pigment epithelium; human retinal progenitor cells (hRPC), as a substitute for human retinal neurons/glia; and mouse eyecups, differentiated from induced pluripotent stem cells. ARPE19 cells are described in Dunn et al., Exp. Eye Res. 62: 155-169, 1996. To study GDNF induction in a human retinal pigment epithelium cell line, ARPE19, thawed ARPE19 cells (passage 33, ATCC) were plated on fibronectin (Akron)-coated plates (Nunc) in stimulation medium at a density of 10 k cells/sq.cm. The flasks were incubated at standard conditions: 37° C., 5% CO2, 100% humidity. Cells were plated 24 hours prior to Compound I treatment and were grown in Ultraculture medium (Lonza), supplemented with 1×MEM NEAA (Gibco), 1× L-glutamine (Gibco), 1× Antibiotic/antimycotic (Gibco), 2 ng/ml bFGF (Peprotech), 1 ng/ml EGF (Peprotech). For qPCR analysis, the experiments were performed in 35 mm Petri dishes in 2 ml of medium with Compound I concentration of 100 nM (DMSO-based solution). Total mRNA was isolated at 0, 15, 30, 60, 120, 240 minutes post stimulation. For protein expression determination by ELISA, the experiments were performed in 96 well plates in 100 ul of medium with each condition (concentrations ranging from 0 to 10 uM) reproduced in 3 wells. For ELISA analysis, plates were removed from out of incubator 24 hours post stimulation and freeze-thawed followed by CHAPS lysis buffer treatment for total […] extraction. The ELISA analysis for GDNF was performed using GDNF DuoSet kit (R&D systems) using manufacturer's instructions.
Experiments with human retinal progenitor cell line (hRPC) were performed in a similar manner (Baranov et al., Tissue Eng Part A 20, 140124133442001-1475 (2014)): hRPC were thawed and plated (passage 15) in 96 well plates using the same conditions and density as described above for ARPE19. The cell treatment, sample collection and readout were performed using the same protocol. […]

Test [2] concerns GDNF. The experiment in a line: GDNF induction by Compound I aqueous solution in wild-type mice. The class given is in vivo, mouse. The note with it: 3 hours; for GDNF mRNA induction compared to vehicle-treated control: wild type mice; for GDNF protein upregulation compared to untreated control: wildtype mice, vehicle 1.5 fold. How it is done:
(§1) All animal procedures were performed under general (intraperitoneal ketamine/xylazine) and topical (proparacaine drops) anesthesia. Tropicamide was applied for pupil dilation. After injection, the eye was treated with antibiotic ointment (Bacitracin-Neomycin-Polymyxin). The same procedures were applied to control eyes.
(§2) To study GDNF induction by Compound I aqueous solution, 1 ul of 10 uM (n=5) or 100 uM (n=5) water-based Compound I or 1 ul of Vehicle (n=5) was administered intravitreally using beveled glass needle, connected to a Hamilton syringe through polyethylene tubing. During the injection, corneal paracenthesis was performed to reduce intraocular pressure. Compound I was injected into 4-week old wildtype (C57/Bl6, Jackson labs) and rhodopsin knockout (Humphries et al., Nat. Genet. 15, 216-219 (1997)).
(§3) Three hours after the injection animals were euthanized using CO2, then the death was confirmed by cervical dislocation. The treated and untreated eyes were enucleated and placed in 250 ul of chilled RNAlater buffer (Qiagen) and stored at 4° C. Later, eyes were excised and total neural retina with retinal pigment epithelium were collected into 400 ul of Lysis buffer (Qiagen RNeasy kit) with 5 mM beta-mercaptoethanol. Total RNA was isolated using RNeasy kit (Qiagen) and eluted with 100 ul of Ultrapure water (Life technologies). All flow through from RNA isolation (˜2.4 ml) was collected and mixed with 10 ml of ice-cold (−20° C.) acetone for protein precipitation. The protein was precipitated at −20° C. for 30 minutes, then pelleted at 3500 rpm for 20 min. Pellets were washed once with 100% ethanol, then reconstituted with 300 ul of RIPA buffer with 0.2 mM 4-benzenesulfonyl fluoride hydrochloride (Tocris). mRNA and protein expression were assessed by qPCR and Western Blot and normalized to GAPDH and βActin. The statistical analysis was performed using a T-test (p<0.05) with Bonferroni post-hoc test.

The subject of test [3] is GDNF. The experiment in a line: GDNF induction by Compound I aqueous solution in rhodopsin knockout mice. The class given is in vivo, mouse. The note with it: 3 hours; for GDNF protein upregulation: vehicle 1.2 fold. On the procedure:
as §1, §2, §3

In test [4] the test system is GDNF. The experiment in a line: GDNF induction by Compound I suspension in wild-type mice. The class given is in vivo, mouse. As to conditions: suspension intravitreally; for GDNF mRNA induction vs. vehicle / GDNF protein level vs. vehicle: wild-type mice. How it is done:
To study GDNF induction by Compound I suspension (60 mg/ml), 2 ul of suspension (n=35) or Vehicle (n=5) were administered intravitreally to 3-week old wild-type (C57/Bl6) mice. A beveled glass needle connected to a Hamilton syringe through polyethylene tubing was ysed. During the injection, corneal paracenthesis was performed to reduce intraocular pressure.
Animals were euthanized at several timepoints after injection for enucleation and RNA/protein analysis (n=5 for each timepoint, n=4 for 7 days and 14 days): vehicle at 1 hour, Compound I at 1 hour, 1 day, 2 days, 7 days and 14 days. The treated and untreated eyes were enucleated and were collected for mRNA and protein expression as previously described. The treated and untreated eyes were enucleated and placed in 250 ul of chilled RNAlater buffer (Qiagen) and stored at 4° C. The eyes were excised and total neural retina with retinal pigment epithelium was collected into 400 ul of Lysis buffer (Qiagen RNeasy kit) with beta-mercaptoethanol. Total RNA was isolated using RNeasy kit (Qiagen) and eluted with 100 ul of Ultrapure water (Life technologies). All flow through from RNA isolation (˜2.4 ml) was collected and mixed with 10 ml of ice-cold (−20° C.) acetone for protein precipitation. The protein was precipitated at −20° C. for 30 minutes, then pelleted at 3500 rpm for 20 min. Pellets were washed once with 100% ethanol, then reconstituted with 300 ul of RIPA buffer with AEBSF. mRNA and protein expression were assessed by qPCR and Western blot (WB). The results were analyzed by ANOVA (p<0.05).

As for `COc1cc2c(cc1S(=O)(=O)c1ccc(OCc3ccc(Cl)cc3)cc1)CCN(C)CC2` [Compound I, 7-[4-(4-chloro-benzyloxy)-benzenesulfonyl]-8-methoxy-3-methyl-2,3,4,5-tetrahydro-1H-3-benzazepine], the GDNF induction result in test [1] is “More than 2 fold”. The “GDNF induction, result in words” value in test [1] (0 to 10 uM) is listed as “Significant dose-dependent GDNF induction”. For the same compound, the “concentration of Compound I at which GDNF was upregulated” value in test [1] (ELISA, FIG. 1B) is 1 µM. Also, the “GDNF mRNA induction compared to vehicle-treated control” value came out at 1.3 fold in test [2] (1 ul of 10 uM solution intravitreally), 1.9 fold in test [2] (1 ul of 100 uM solution intravitreally), 1.8 fold in test [3] (10 uM solution intravitreally) and 1.7 fold in test [3] (100 uM solution intravitreally). Also, the “GDNF protein upregulation compared to untreated control” value in test [2] (10 uM solution intravitreally) and in test [2] (100 uM solution intravitreally) was 2.3 fold in each case. Moreover, the GDNF protein upregulation in test [3] (10 uM solution intravitreally) is > 2 fold and 2.8 fold; in test [3] (100 uM solution intravitreally), > 2 fold and 2.6 fold. The “GDNF mRNA upregulation over the time course” value in test [4] (C57Bl/6 mice, up to 14 days) was more than 1.8 fold. In test [4] (C57Bl/6 mice, up to 14 days), the “GDNF protein upregulation over the time course” value is more than 2.8 fold. The “GDNF mRNA induction vs. vehicle” value in test [4] (1 hour) amounted to 1.4 fold; in test [4] (1 day), 1.3 fold; in test [4] (2 days) it was 1.2 fold; in test [4] (7 days) it was 1.8 fold; in test [4] (14 days), 1.8 fold. For the same compound, the “GDNF protein level vs. vehicle” value in test [4] (1 hour) came out at 0.9 fold; in test [4] (1 day) it was 1.6 fold; in test [4] (2 days) it was 2.4 fold; in test [4] (7 days), 2.7 fold; in test [4] (14 days) it was 3.2 fold.
